# Patent US11045457B2, “Piperidinyl-3-(aryloxy)propanamides and propanoates” (priority 2018, dated 2021)
# Legend:
# SSTR4 [1] = target: T1, SSTR4 (Homo sapiens (Human), UniProt P31391); assay: Inhibition of forskolin stimulated cAMP in CHO-K1 cells overexpressing SSTR4; assay type: cell-based; details: for EC50: read-out: SSTR4 Activity pEC50 (converted)
# Method in brief: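 Read-out is a HTRF LANCE Ultra cAMP competition using Eu-labelled streptavidin and biotin-cAMP, incubated 60 min at room temperature. It followed a 30 min room-temperature exposure of Kreb's Ringer-washed cells to compound plus forskolin. Potency is expressed as pEC50.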
# SSTR4 [2] = target: T1, SSTR4; assay: SSTR4 I-125 somatostatin competition binding assay (membranes from CHO-K1 cells overexpressing SSTR4); details: competition with I-125 labeled somatostatin; for IC50: read-out: SSTR4 Binding pIC50 (converted)
# T1 sequence (P31391 whole entry): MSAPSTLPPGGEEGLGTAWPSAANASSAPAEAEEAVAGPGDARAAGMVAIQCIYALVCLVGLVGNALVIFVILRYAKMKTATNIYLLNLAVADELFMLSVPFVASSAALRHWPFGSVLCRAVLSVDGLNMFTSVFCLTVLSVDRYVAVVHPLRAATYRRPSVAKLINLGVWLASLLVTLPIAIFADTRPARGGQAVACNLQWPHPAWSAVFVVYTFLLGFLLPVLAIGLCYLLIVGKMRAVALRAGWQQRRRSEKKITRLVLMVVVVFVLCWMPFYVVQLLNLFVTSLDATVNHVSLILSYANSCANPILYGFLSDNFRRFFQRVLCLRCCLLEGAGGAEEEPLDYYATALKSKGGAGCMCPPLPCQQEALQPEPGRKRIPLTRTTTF
SMILES,SSTR4 Activity pEC50 (SSTR4 [1]),SSTR4 Binding pIC50 (SSTR4 [2]),EC50 (SSTR4 [1]) [nM],IC50 (SSTR4 [2]) [nM]
"C[C@H]1C[C@@H](NC(=O)C(F)(F)COc2ncccc2C(F)(F)F)CCN1C (racemic) [Example 191, cis-N-(1,2-dimethylpiperidin-4-yl)-2,2-difluoro-3-((3-(trifluoromethyl)pyridin-2-yl)oxy)propanamide]",,,79.4,200
"C[C@@H]1C[C@H](NC(=O)C(F)(F)COc2ncccc2OC(F)(F)F)CCN1C [Example 206, N-((2R,4R)-1,2-dimethylpiperidin-4-yl)-2,2-difluoro-3-((3-(trifluoromethoxy)pyridin-2-yl)oxy)propanamide]",7.7,6.7,,
"C[C@H]1CNCC[C@@H]1NC(=O)C(C)(C)COc1ccccc1F [Example 196, 3-(2-fluorophenoxy)-2,2-dimethyl-N-((3S,4S)-3-methylpiperidin-4-yl)propanamide]",8.5,7.5,,
"Cc1cccnc1OCC(F)(F)C(=O)N[C@H]1CCNC[C@@H]1F [Example 201, 2,2-difluoro-N-((3S,4S)-3-fluoropiperidin-4-yl)-3-((3-methylpyridin-2-yl)oxy)propanamide]",7.5,6.7,,
"CC[C@@H]1CN(C)CC[C@@H]1NC(=O)C(C)(C)COc1ncccc1OC(F)(F)F (relative stereo) [Example 116, N-(cis-3-ethyl-1-methylpiperidin-4-yl)-2,2-dimethyl-3-((3-(trifluoromethoxy)pyridin-2-yl)oxy)propanamide]",7.5,6.2,,
"C[C@H]1C[C@@H](NC(=O)C(C)(C)COc2ncccc2C(F)(F)F)CCN1C (relative stereo) [Example 129, cis-N-(1,2-dimethylpiperidin-4-yl)-2,2-dimethyl-3-((3-(trifluoromethyl)pyridin-2-yl)oxy)propanamide]",7.7,6.8,,
"C[C@@H]1CN(CC#N)CC[C@H]1NC(=O)C(C)(C)COc1ncccc1OC(F)(F)F (relative stereo) [Example 184, trans-N-(1-(cyanomethyl)-3-methylpiperidin-4-yl)-2,2-dimethyl-3-((3-(trifluoromethoxy)pyridin-2-yl)oxy)propanamide]",7.6,6.0,,
"Cc1cccnc1OCC(C)(C)C(=O)NC1CCN(C)CC1 [Example 1, 2,2-dimethyl-N-(1-methylpiperidin-4-yl)-3-((3-methylpyridin-2-yl)oxy)propanamide]",7.3,6.4,,
C[C@@H]1C[C@H](NC(=O)C(C)(C)COc2ncccc2C(F)(F)F)CCN1C [Example 176],7.7,7.1,,
"O=C(N[C@H]1CCNC[C@@H]1F)C(F)(F)COc1ncccc1OC(F)(F)F [Example 207, 2,2-difluoro-N-((3S,4S)-3-fluoropiperidin-4-yl)-3-((3-(trifluoromethoxy)pyridin-2-yl)oxy)propanamide]",8.1,7.6,,
"C[C@H]1C[C@@H](NC(=O)C(C)(C)COc2ncccc2C(F)(F)F)CCN1C [Example 178, N-((2S,4S)-1,2-dimethylpiperidin-4-yl)-2,2-dimethyl-3-((3-(trifluoromethyl)pyridin-2-yl)oxy)propanamide]",,6.5,,
"CN1CCC(NC(=O)C(C)(C)COc2ccc(Cl)cc2)CC1 [Example 217, 3-(4-chlorophenoxy)-2,2-dimethyl-N-(1-methylpiperidin-4-yl)propanamide]",5.8,,,
"CN1CCC(NC(=O)C(C)(C)COc2ncccc2C(F)(F)F)CC1(C)C (centres unmarked) [Example 132, 2,2-dimethyl-3-((3-(trifluoromethyl)pyridin-2-yl)oxy)-N-(1,2,2-trimethylpiperidin-4-yl)propanamide]",7.1,,,
"CCC1CC(NC(=O)C(C)(C)COc2ncccc2OC(F)(F)F)CCN1C (centres unmarked) [Example 146, N-(2-ethyl-1-methylpiperidin-4-yl)-2,2-dimethyl-3-((3-(trifluoromethoxy)pyridin-2-yl)oxy)propanamide]",6.7,,,
"CC(C)(COc1ncccc1C(F)(F)F)C(=O)NC1CCNCC1(F)F (centres unmarked) [Example 159, N-(3,3-difluoropiperidin-4-yl)-2,2-dimethyl-3-((3-(trifluoromethyl)pyridin-2-yl)oxy)propanamide]",6.7,,,
"CN1CC[C@@H](NC(=O)C(C)(C)COc2ncccc2OC(F)(F)F)[C@H](c2cnn(C(F)F)c2)C1 (relative stereo) [Example 126, trans-N-(3-(1-(difluoromethyl)-1H-pyrazol-4-yl)-1-methylpiperidin-4-yl)-2,2-dimethyl-3-((3-(trifluoromethoxy)pyridin-2-yl)oxy)propanamide]",,,1.58,

# Next, values leading:
SSTR4 Activity pEC50 (SSTR4 [1]),SSTR4 Binding pIC50 (SSTR4 [2]),EC50 (SSTR4 [1]) [nM],IC50 (SSTR4 [2]) [nM],SMILES
8.3,7.2,,,"C[C@@H]1CN(C)CC[C@H]1NC(=O)C(C)(C)COc1ncccc1C1CC1 (relative stereo) [Example 20, trans-3-((3-cyclopropylpyridin-2-yl)oxy)-N-(1,3-dimethylpiperidin-4-yl)-2,2-dimethylpropanamide]"
,,25.1,251,"Cc1cnc(OCC(C)(C)C(=O)N[C@@H]2CCN(C)C[C@H]2C)c(C)c1 (single isomer, unassigned) [Example 31, trans-N-(1,3-dimethylpiperidin-4-yl)-3-((3,5-dimethylpyridin-2-yl)oxy)-2,2-dimethylpropanamide]"
7.4,6.8,,,"Cc1cnc(OCC(C)(C)C(=O)N[C@H]2CCN(C)C[C@@H]2C)c(C)c1 [Example 141, N-((3S,4S)-1,3-dimethylpiperidin-4-yl)-3-((3,5-dimethylpyridin-2-yl)oxy)-2,2-dimethylpropanamide]"
7.4,6.5,,,"Cc1cnc(OCC(C)(C)C(=O)NC2CCN(C)CC2)c(C)c1 [Example 84, 3-((3,5-dimethylpyridin-2-yl)oxy)-2,2-dimethyl-N-(1-methylpiperidin-4-yl)propanamide]"
8.4,7.5,,,"C[C@@H]1CN(C)CC[C@H]1NC(=O)C(C)(C)COc1ncccc1OC(F)(F)F (single isomer, unassigned) [Example 13, trans-N-(1,3-dimethylpiperidin-4-yl)-2,2-dimethyl-3-((3-(trifluoromethoxy)pyridin-2-yl)oxy)propanamide]"
6.9,6.6,,,"Cc1cccnc1OCC(C)(C)C(=O)N[C@H]1CCN(C)C[C@@H]1F [Example 121, N-((3S,4S)-3-fluoro-1-methylpiperidin-4-yl)-2,2-dimethyl-3-((3-methylpyridin-2-yl)oxy)propanamide]"
6.8,6.1,,,"C[C@@H]1CN(C)CC[C@H]1NC(=O)C(C)(C)COc1ncccc1OC(F)(F)F (single isomer, unassigned) [Example 108]"
,,200,,"Cc1cnc(OCC(C)(C)C(=O)N[C@@H]2CN(C)C[C@H]2c2ccc(Cl)cc2)c(C)c1 (relative stereo) [Example 93, trans-N-(4-(4-chlorophenyl)-1-methylpyrrolidin-3-yl)-3-((3,5-dimethylpyridin-2-yl)oxy)-2,2-dimethylpropanamide]"
